# Test system: human fibroblasts (ATCC-CRL-2703)
# Experiment: Fibroblast proliferation, MTT coloration
# Type: cell-based
# Procedure: These supramolecular complexes were tested to evaluate the stimulatory activity on human fibroblasts (ATCC-CRL-2703). […] Cells were exposed to each complex for 24 and 48 hours (medium was replaced every 24 h) at 37° C. and 5% CO2. At the end of incubation period, MTT coloration was performed in order to evaluate cell viability and the increasing proliferating rate compared to untreated control cells. For each determination 6 tests were carried out. After exposure, cells were washed with […] of PBS, then 200 μl of MTT-medium are added to each culture well and incubated for 4 hours at 37° C. and 5% CO2. MTT medium is then removed and 200 μl of MTT dissolving solution (10% Triton X-100 and 0.1 N HCl in dry isopropanol) were added. After shaking on a rotating plate for 20-30′ to dissolve crystals and homogenize the solution, absorbance was read at 570 nm; background reading at 690 nm.
compound,measurement,setting,value
"NCCCCNCCCN [Spermidine (Spd) 3HCl, N-(3-aminopropyl)-1,4-butanediamine]",% Proliferative increase at 24 h,Spd 3HCl 10 nM,31.86%
same,% Proliferative increase at 48 h,Spd 3HCl 10 nM,35.96%
same,% Proliferative increase at 24 h,Spd 3HCl 100 nM,26.27%
same,% Proliferative increase at 48 h,Spd 3HCl 100 nM,29.39%
same,% Proliferative increase at 24 h,Spd 3HCl 1 μM,7.55%
same,% Proliferative increase at 48 h,Spd 3HCl 1 μM,13.01%
same,% Proliferative increase at 24 h,Spd 3HCl 10 μM,2.3%
same,% Proliferative increase at 48 h,Spd 3HCl 10 μM,8.48%
same,% Proliferative increase at 24 h,Spd 3HCl 100 μM,1.31%
same,% Proliferative increase at 48 h,Spd 3HCl 100 μM,4.09%
same,% Proliferative increase at 24 h,Spd 3HCl 1 mM,−0.16%
same,% Proliferative increase at 48 h,Spd 3HCl 1 mM,−3.22%
same,% Proliferative increase at 24 h,Spd 3HCl 10 mM,−9.85%
same,% Proliferative increase at 48 h,Spd 3HCl 10 mM,−9.5%
same,effect on fibroblast proliferation at mmolar concentration,mmolar concentration,suppressive effect
same,pattern of the proliferative effect over concentration,serial dilution,bimodal pattern
same,effect on fibroblast proliferation at μmolar or nmolar levels,μmolar or nmolar levels,positive effect
